From US10508109B2 (priority 2015, dated 2019)
Counter-ions that a name gives are not always drawn. Like-named read-outs stand apart in the source and are kept apart here.

Assays:
SUV39H2 [1] = target: T1, SUV39H2 (Homo sapiens (Human), UniProt Q9H5I1); assay: biochemical; type: biochemical; details: 3H-SAM 100 nM, H3 Histone Peptide 350 nM, room temperature 3 hours
Procedure: Assay buffer (4 μL) was added into all the wells, including test compound and control wells (except for Sinefungin control wells), using the Multidrop Combi. The plate was centrifuged at 1000 rpm for 1 min. […] SUV39H2 (8 μL, final conc: optimized for each lot of the enzyme based on specific activity) was added by using the Multidrop Combi. The assay plate was centrifuged at 1000 rpm for 1 min. Assay buffer was used as background control, and incubated at room temperature for 3 hours. The reaction was stopped with 20 μL of 2.5 mg/mL Streptavidin SPA beads (final conc. 50 μg/well) in buffer using the Multidrop Combi and centrifuged for 1 min. The plate was loaded into the Trilux-Microbeta counter and a delayed read of 10 hours was made. The radioactive signal was measured at 1 min/well. Sinefungin and the internal standard compound were used as tool compounds to determine assay performance.
• The following calculations were made using the obtained CPM raw data: Software used: XLFit from IDBS.
For each test plate the following results were calculated: • Average, Standard Deviation, and % CV of Background Controls • Average, Standard Deviation, and % CV of Positive Controls • Z′ value of the plate • IC50 values of standard and test compounds (in nM) • R^2 value of fitted concentration response curve • Hill slope coefficient of fitted concentration response curve • Signal to Noise Ratio

A549 = assay: Cell-based assay, anti-proliferative activity (Cell Counting Kit-8, 72 hours); details: Homo sapiens, A549 cells, Cell Counting Kit-8
Procedure, shortened: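 Growth read-out after inhibitor treatment of plated cells; potency expressed as IC50.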

CCD-18Co = assay: as above; details: Homo sapiens; CCD-18Co cells, 72 hours, Cell Counting Kit-8; read-out: IC50 (μM) CCD-18Co
Procedure, shortened: (§1)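 CCK-8 viability read 72 h after compound exposure over an 8-point series from 1.5625 to 100 micro-M plus zero. Seeding density 2,000–3,000 cells/well; IC50 from the dilution series.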

HCT-116 = assay: as above; details: Homo sapiens; HCT-116 cells, 72 hours, Cell Counting Kit-8; read-out: IC50 (μM) HCT-116
Procedure, shortened: as §1

HFL1 = assay: as above; details: Homo sapiens; HFL1 cells, 72 hours, Cell Counting Kit-8; read-out: IC50 (μM) HFL1
Procedure, shortened: as §1

PC14 = assay: as above; details: Homo sapiens, PC-14; PC14 cells, 72 hours, Cell Counting Kit-8; read-out: IC50 (μM) PC14
Procedure, shortened: as §1

SUV39H2 [2] = target: T1, SUV39H2; details: read-out: IC50 (μM) Suv 39H2 assay; enzyme assay
[3] = 72 hours exposure, read-out: A549 IC50
[4] = 72 hours, read-out: IC50 (μM) A549

T1 sequence (Q9H5I1 whole entry): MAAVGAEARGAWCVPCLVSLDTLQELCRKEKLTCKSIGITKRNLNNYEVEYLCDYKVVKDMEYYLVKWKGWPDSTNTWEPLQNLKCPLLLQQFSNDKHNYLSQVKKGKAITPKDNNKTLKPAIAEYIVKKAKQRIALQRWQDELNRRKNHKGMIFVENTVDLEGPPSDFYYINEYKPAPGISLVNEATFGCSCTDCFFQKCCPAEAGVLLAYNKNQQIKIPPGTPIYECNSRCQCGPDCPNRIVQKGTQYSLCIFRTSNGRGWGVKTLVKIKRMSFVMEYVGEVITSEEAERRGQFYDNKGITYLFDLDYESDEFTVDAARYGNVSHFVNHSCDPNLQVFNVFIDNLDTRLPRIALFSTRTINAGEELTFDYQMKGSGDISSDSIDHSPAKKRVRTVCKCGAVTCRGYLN

Structure (SMILES)	IC50 (SUV39H2 [1]) [nM]	IC50 (A549; [3]) [µM]	also measured
COc1cc(OC)c(-c2cn3ccc(N4C[C@H](NCc5ccncc5)[C@@H](O)C4)cc3n2)cc1Cl (relative stereo) [Example 439, trans-1-(2-(5-chloro-2,4-dimethoxyphenyl)imidazo[1,2-a]pyridin-7-yl)-4-((pyridin-4-ylmethyl)amino)pyrrolidin-3-ol]	6.76	10	
COc1cc(OC)c(-c2cn3ccc(N4CC[C@H](NCc5ccc(C)cc5)C4)cc3n2)cc1Cl [Example 305, (S)-1-(2-(5-chloro-2,4-dimethoxyphenyl)imidazo[1,2-a]pyridin-7-yl)-N-(4-methylbenzyl)pyrrolidin-3-amine]			IC50 (A549; [4]): 1.1 µM; IC50 (CCD-18Co): 0.82 µM; IC50 (HCT-116): 0.59 µM; IC50 (HFL1): 0.67 µM; IC50 (PC14): 0.99 µM; IC50 (SUV39H2 [2]): 0.0117 µM
COc1ccc(CN[C@H]2CCN(c3ccn4cc(-c5cc(Cl)c(OC)cc5OC)nc4c3)C2)cc1 [Example 306, (S)-1-(2-(5-chloro-2,4-dimethoxyphenyl)imidazo[1,2-a]pyridin-7-yl)-N-(4-methoxybenzyl)pyrrolidin-3-amine]			IC50 (A549; [4]): 1.3 µM; IC50 (CCD-18Co): 1.4 µM; IC50 (HCT-116): 0.69 µM; IC50 (HFL1): 0.72 µM; IC50 (PC14): 1.4 µM; IC50 (SUV39H2 [2]): 0.00881 µM
COc1cc(OC)c(-c2cn3ccc(N4CCN(C(C)=O)CC4)cc3n2)cc1Cl [Example 307, 1-(4-(2-(5-chloro-2,4-dimethoxyphenyl)imidazo[1,2-a]pyridin-7-yl)piperazin-1-yl)ethanone]	2	2.2	
COc1cc(OC)c(-c2cn3ccc(N4CCN(C(C)=O)CC4C)cc3n2)cc1Cl (stereo not drawn) [Example 308, 1-(4-(2-(5-chloro-2,4-dimethoxyphenyl)imidazo[1,2-a]pyridin-7-yl)-3-methylpiperazin-1-yl)ethanone]	3.5	8.6	
COc1cc(OC)c(-c2cn3ccc(N4CCN(C(C)=O)C(C)C4)cc3n2)cc1Cl (stereo not drawn) [Example 309, 1-(4-(2-(5-chloro-2,4-dimethoxyphenyl)imidazo[1,2-a]pyridin-7-yl)-2-methylpiperazin-1-yl)ethanone]	1.97	2.1	
COCC(=O)N1CCN(c2ccn3cc(-c4cc(Cl)c(OC)cc4OC)nc3c2)CC1C (stereo not drawn) [Example 310, 1-(4-(2-(5-chloro-2,4-dimethoxyphenyl)imidazo[1,2-a]pyridin-7-yl)-2-methylpiperazin-1-yl)-2-methoxyethanone]	1.78	10	
COc1cc(OC)c(-c2cn3ccc(N4CCN(S(C)(=O)=O)CC4C)cc3n2)cc1Cl (stereo not drawn) [Example 311, 2-(5-chloro-2,4-dimethoxyphenyl)-7-(2-methyl-4-(methylsulfonyl)piperazin-1-yl)imidazo[1,2-a]pyridine]	4.94	3.8	
COc1cc(OC)c(-c2cn3ccc(N4CCN(S(C)(=O)=O)C(C)C4)cc3n2)cc1Cl (stereo not drawn) [Example 312, 2-(5-chloro-2,4-dimethoxyphenyl)-7-(3-methyl-4-(methylsulfonyl)piperazin-1-yl)imidazo[1,2-a]pyridine]	3.81	2.5	
COc1cc(OC)c(-c2cn3ccc(N4CCN(C(=O)c5ccccc5O)CC4)cc3n2)cc1Cl [Example 314, (4-(2-(5-chloro-2,4-dimethoxyphenyl)imidazo[1,2-a]pyridin-7-yl)piperazin-1-yl)(2-hydroxyphenyl)methanone]	7.29	1.7	
COc1cc(OC)c(-c2cn3ccc(N4CCN(C(=O)CCCCNC(=O)OC(C)(C)C)CC4)cc3n2)cc1Cl [Example 315, tert-butyl (5-(4-(2-(5-chloro-2,4-dimethoxyphenyl)imidazo[1,2-a]pyridin-7-yl)piperazin-1-yl)-5-oxopentyl)carbamate]	10.5	4.4	
COc1cc(OC)c(-c2cn3ccc(N[C@H]4CC[C@H](CN5CCN(c6ncccn6)CC5)CC4)cc3n2)cc1Cl [Example 316, 2-(5-chloro-2,4-dimethoxyphenyl)-N-((trans)-4-((4-(pyrimidin-2-yl)piperazin-1-yl)methyl)cyclohexyl)imidazo[1,2-a]pyridin-7-amine]	77	0.7	
COc1cc(OC)c(-c2cn3ccc(N4CCN(c5cncnc5)CC4)cc3n2)cc1Cl [Example 317, 2-(5-chloro-2,4-dimethoxyphenyl)-7-(4-(pyrimidin-5-yl)piperazin-1-yl)imidazo[1,2-a]pyridine]	11.6	0.65	
COc1cc(OC)c(-c2cn3ccc(N[C@H]4CC[C@H](Nc5ncccn5)CC4)cc3n2)cc1Cl [Example 318, (1r,4r)-N^1-(2-(5-chloro-2,4-dimethoxyphenyl)imidazo[1,2-a]pyridin-7-yl)-N^4-(pyrimidin-2-yl)cyclohexane-1,4-diamine hydrochloride]	9.73	0.18	
COc1cc(OC)c(-c2cn3ccc(N4CCN(C(=O)c5ccncc5)CC4)cc3n2)cc1Cl [Example 319, (4-(2-(5-chloro-2,4-dimethoxyphenyl)imidazo[1,2-a]pyridin-7-yl)piperazin-1-yl)(pyridin-4-yl)methanone]	16.4	4.6	
COc1cc(OC)c(-c2cn3ccc(NC4CCC(NCc5ccc(F)cc5)CC4)cc3n2)cc1Cl (stereo not drawn) [Example 320, (1r,4r)-N^1-(2-(5-chloro-2,4-dimethoxyphenyl)imidazo[1,2-a]pyridin-7-yl)-N^4-(4-fluorobenzyl)cyclohexane-1,4-diamine]	95	0.43	
COc1ccc(N2CCN(c3ccn4cc(-c5cc(Cl)c(OC)cc5OC)nc4c3)CC2)nc1 [Example 321, 2-(5-chloro-2,4-dimethoxyphenyl)-7-(4-(5-methoxypyridin-2-yl)piperazin-1-yl)imidazo[1,2-a]pyridine]	87.4	0.87	
COc1cc(OC)c(-c2cn3ccc(N4CCN(c5ccncc5F)CC4)cc3n2)cc1Cl [Example 322, 2-(5-chloro-2,4-dimethoxyphenyl)-7-(4-(3-fluoropyridin-4-yl)piperazin-1-yl)imidazo[1,2-a]pyridine]	57.5	0.56	
COc1cc(OC)c(-c2cn3ccc(N4CCN(c5ccc(N)nc5)CC4)cc3n2)cc1Cl [Example 323, 5-(4-(2-(5-chloro-2,4-dimethoxyphenyl)imidazo[1,2-a]pyridin-7-yl)piperazin-1-yl)pyridin-2-amine]	30.4	0.93	
COc1cc(OC)c(-c2cn3ccc(NC4CCN(Cc5csc([N+](=O)[O-])c5)CC4)cc3n2)cc1Cl [Example 324, 2-(5-chloro-2,4-dimethoxyphenyl)-N-(1-((5-nitrothiophen-3-yl)methyl)piperidin-4-yl)imidazo[1,2-a]pyridin-7-amine]	33.9	0.59	
COc1cc(OC)c(-c2cn3ccc(N4CCN(c5ccnc(NCCO)n5)CC4)cc3n2)cc1Cl [Example 334, 2-((4-(4-(2-(5-chloro-2,4-dimethoxyphenyl)imidazo[1,2-a]pyridin-7-yl)piperazin-1-yl)pyrimidin-2-yl)amino)ethanol]	21.3		
COc1cc(OC)c(-c2cn3ccc(N4CCN(Cc5cncc(C#N)c5)CC4)cc3n2)cc1Cl [Example 339, 5-((4-(2-(5-chloro-2,4-dimethoxyphenyl)imidazo[1,2-a]pyridin-7-yl)piperazin-1-yl)methyl)nicotinonitrile]	35.7		
COc1cc(OC)c(-c2cn3ccc(N[C@H]4CC[C@@H](N(C)Cc5ccc(F)cc5)CC4)cc3n2)cc1Cl [Example 342]	38.8		
COc1cc(OC)c(-c2cn3ccc(N[C@H]4CC[C@@H](N(C)Cc5ccccc5F)CC4)cc3n2)cc1Cl [Example 347, bis(2,2,2-trifluoroacetate)]	24.8		
COc1cc(OC)c(-c2cn3ccc(N4CCN(c5cnc(N6CCC(NS(=O)(=O)C7CC7)CC6)nc5)CC4)cc3n2)cc1Cl [Example 393, N-(1-(5-(4-(2-(5-chloro-2,4-dimethoxyphenyl)imidazo[1,2-a]pyridin-7-yl)piperazin-1-yl)pyrimidin-2-yl)piperidin-4-yl)cyclopropanesulfonamide]	28.3		
COc1cc(OC)c(-c2cn3ccc(N[C@H]4C[C@H]5CC[C@@H](C4)N5CC4CCCCC4)cc3n2)cc1Cl [Example 434, 2-(5-chloro-2,4-dimethoxyphenyl)-N-((1R,3r,5S)-8-(cyclohexylmethyl)-8-azabicyclo[3.2.1]octan-3-yl)imidazo[1,2-a]pyridin-7-amine]	88.7		
